Test results: PMC5458211, “Mitochondrial VDAC1-based peptides: Attacking oncogenic properties in glioblastoma” (Oncotarget, 2017)

Experiments:
G7 stem cells = assay: Apoptosis by FITC-Annexin V/PI staining and flow cytometry, G7; type: cell-based, GBM patient; details: 3 h at 37°C, Fig 6G-H
Protocol: (§1) Sections were also hematoxylin-stained and visualized by microscopy. B. Tissue lysates obtained from controls and several TF-D-LP4-TTs were immunoblotted for Nestin, Sox2, NGFR, CD133, and Klf4. C. Quantitative analysis of immunoblots is shown (n=2-4). D. Immunoblot analysis of, Klf4, Sox2, Nestin and Musashi expression in U-87MG and G7 cell lines, using specific antibodies. E. Quantitative analysis of immunoblots. […] G. G7 (·) and U-87MG cells (○) (2×10^5) were incubated for 3 h with the DMSO (0.15%) or with the indicated concentration of Retro-Tf-D-LP4 peptide in serum-free growth medium at 37°C and then subjected to FITC-Annexin V/PI staining and flow cytometry analysis. H. Representative FACS analysis of DMSO- (left) and 5 μM of Retro-Tf-D-LP4- (right) treated G7 or U-87MG cells.
Cells (6×10^5 /ml) were incubated in 500 μl serum-free medium with the peptide of interest for 6 h at 37°C in the presence of 5% CO2. The cells were then trypsinized, centrifuged (1500xg, 5 min), washed with PBS and analyzed for cell death using propidium iodide (PI) staining and flow cytometer (Beckton-Dickinson, San Jose, CA) and BD CellQuest Pro software. Apoptotic cell death was also analyzed by PI and annexin V-FITC staining, and by acridine orange and ethidium bromide staining and light microscopy (Olympus LX2-KSP).

U-87MG cells = assay: Cell death in U-87MG by free and PLGA-encapsulated peptide; type: cell-based, human; details: 12 h, PI staining and FACS; Fig 7B
Protocol: B. U-87MG cells (2×10^5) were incubated for 12 h with the indicated concentrations of DMSO, Retro-Tf-D-LP4 peptide (Pep), or Retro-Tf-D-LP4 encapsulated in PLGA nanoparticles (PLGA-Pep). Samples of Retro-Tf-D-LP4 encapsulated in PLGA nanoparticles were centrifuged (15000g, 5 min) to separate the supernatant (Sup), containing free peptide, and the pellet, containing encapsulated Retro-Tf-D-LP4 peptide. Cell death was analyzed by PI staining and FACS analysis. C. Graphical representation of the orthotopic animal experiment. […] E. Calculated tumor volumes after 20 (dark grey bars) and 29 (light grey bars) days post-treatment start. […]
100% DMSO and then diluted 20-fold with sterile DDW into three groups (6 animals/group) and treated every to reach a concentration of 25 mg/ml in a final DMSO third day with DMSO (1.44%), Retro-Tf-D-LP4 (10 concentration of 5%. PLGA (50 mg) was dissolved in mg/kg) or Retro-Tf-D-LP4 (10 mg/kg) encapsulated by acetone (1 ml). […] Tumor volume was analyzed using VivoQuant 2.10 10 ml of aqueous solution containing 1% PVA (w/v). […]
(Calbiochem, UK). […] Thirteen days post-inoculation, using various primary antibodies (sources and dilutions tumor volume was measured and calculated (100-130 as detailed in supplementary Table 2), followed by mm3) and mice were randomized into three groups (5 the appropriate HRP-conjugated secondary antibodies mice/group). […]

GSC markers = assay: Expression of GSC markers in treated tumors (IHC, immunoblot); type: in vivo, human U-87MG in nude mice; details: treated tumors vs PBS/DMSO
Protocol: as §1
Formalin-fixed, paraffin-embedded sections of control and peptide-TTs were hematoxylin-eosin stained, probed with appropriate antibodies via IHC staining or immunoblotting of cells and tissue extracts.
PLGA encapsulation of the VDAC1-based minutes using an UltraMicroPump III (World Precision peptide Retro-Tf-D-LP4 Instruments, Sarasota, FL). After infusion, the needle was left in place for 1 minute before slow withdrawal. The burr
Retro-Tf-D-LP4-loaded PLGA complexes were hole was sealed using sterile bone wax, and the wound prepared by the solvent displacement method with some was closed with 5.0 nylon surgical suture. All surgical modifications, as previously reported [2 3]. Twenty procedures were performed under sterile conditions.
100% DMSO and then diluted 20-fold with sterile DDW into three groups (6 animals/group) and treated every to reach a concentration of 25 mg/ml in a final DMSO third day with DMSO (1.44%), Retro-Tf-D-LP4 (10 concentration of 5%. PLGA (50 mg) was dissolved in mg/kg) or Retro-Tf-D-LP4 (10 mg/kg) encapsulated by acetone (1 ml). Then, 105 µl of peptide were added to the PLGA. Mice were subjected to MRI (at days 20 and 29), PLGA-acetone solution. The resulting peptide-PLGA- sacrificed, and brains were excised and processed for acetone mixture was added drop-wise (0.5 ml/min) into IHC. Tumor volume was analyzed using VivoQuant 2.10 10 ml of aqueous solution containing 1% PVA (w/v). The software. These experimental protocols were approved by mixtures were stirred continuously at room temperature the Institutional Animal Care and Use Committee of Ben-until complete evaporation of the organic solvent. The Gurion University. nanoparticles were centrifuged at 15,000g (4 °C for 20 min) and the pellet was re-suspended in sterile DDW and Gel electrophoresis and immunoblotting washed two times. The resulting pellet was mixed with HBSS solution. Cells or tumor tissue were lysed using lysis buffer (50 mM Tris-HCl, pH 7.5, 150 mM NaCl, 1
Xenograft and intracranial-orthotopic mouse mM EDTA, 1.5 mM MgCl2, 10% glycerol, 1% Triton models X-100, supplemented with a protease inhibitor cocktail
(Calbiochem, UK). Cell lysates were then centrifuged at U-87MG glioblastoma cells (3 x106) were inoculated 600xg (10 min at 4°C) and samples (10-40 μg of protein) s.c. into the hind leg ﬂanks of athymic eight-week old were subjected to SDS-PAGE and immunoblotting male nude mice (Envigo). Thirteen days post-inoculation, using various primary antibodies (sources and dilutions tumor volume was measured and calculated (100-130 as detailed in supplementary Table 2), followed by mm3) and mice were randomized into three groups (5 the appropriate HRP-conjugated secondary antibodies mice/group). Each treatment substance was injected into (i.e., anti-mouse, anti-rabbit or anti-goat). Blots the established s,c. tumors using PBS containing 0.26% were developed using enhanced chemiluminescence DMSO or peptide in PBS, 0.26% DMSO/20 μM). The (Biological Industries). Band intensities were analyzed xenografts were injected 20 µl per tumor (2 points) every by densitometry using Multi Gauge software (Fujifilm) […]
two days. […]

| SMILES | apoptosis of G7 stem cells (G7 stem cells) | cell death, U-87MG (U-87MG cells) | CD133 expression (GSC markers) | Klf4 expression (GSC markers) | NGFR expression (GSC markers) | Nestin expression (GSC markers) | S100B expression (GSC markers) | Sox2 expression (GSC markers) |
| --- | --- | --- | --- | --- | --- | --- | --- | --- |
| CC[C@H](C)[C@H](NC(=O)[C@H](Cc1ccc(O)cc1)NC(=O)[C@@H]1CCCN1C(=O)[C@H](CCCNC(=N)N)NC(=O)[C@H](Cc1c[nH]cn1)NC(=O)[C@H](CO)NC(=O)[C@H](Cc1c[nH]c2ccccc12)NC(=O)[C@@H](NC(=O)[C@H](Cc1c[nH]c2ccccc12)NC(=O)[C@H](CCC(=O)O)NC(=O)[C@@H](CCCCN)NC(=O)[C@@H](CCCCN)NC(=O)[C@@H](CC(C)C)NC(=O)[C@@H](CCC(=O)O)NC(=O)[C@H](NC(=O)[C@@H](C)NC(=O)[C@H](NC(=O)[C@@H](CC(N)=O)NC(=O)[C@@H](CC(C)C)NC(=O)[C@@H](C)NC(=O)[C@@H](Cc1c[nH]c2ccccc12)NC(=O)[C@H](NC(=O)[C@@H](C)NC(=O)CNC(=O)[C@@H](CC(N)=O)NC(=O)[C@@H](CO)NC(=O)[C@@H](CC(N)=O)NC(=O)[C@H](CCCCN)NC(=O)[C@H](Cc1c[nH]c2ccccc12)NC(=O)[C@@H](NC(=O)[C@H](Cc1c[nH]c2ccccc12)NC(=O)[C@@H](N)CCCCN)[C@@H](C)O)[C@H](C)O)C(C)C)[C@H](C)O)[C@@H](C)O)C(=O)N[C@@H](C)C(=O)N[C@@H](Cc1c[nH]cn1)C(=O)O [Retro-Tf-D-LP4] | induces apoptosis | induces cell death | – | – | – | – | – | – |
| CC[C@H](C)[C@H](NC(=O)[C@H](C)NC(=O)[C@@H](N)Cc1c[nH]cn1)C(=O)N[C@@H](Cc1ccc(O)cc1)C(=O)N1CCC[C@H]1C(=O)N[C@@H](CCCNC(=N)N)C(=O)N[C@@H](Cc1c[nH]cn1)C(=O)N[C@@H](CO)C(=O)N[C@@H](Cc1c[nH]c2ccccc12)C(=O)N[C@H](C(=O)N[C@@H](Cc1c[nH]c2ccccc12)C(=O)N[C@@H](CCC(=O)O)C(=O)N[C@H](CCCCN)C(=O)N[C@H](CCCCN)C(=O)N[C@H](CC(C)C)C(=O)N[C@H](CCC(=O)O)C(=O)N[C@@H](C(=O)N[C@H](C)C(=O)N[C@@H](C(=O)N[C@H](CC(N)=O)C(=O)N[C@H](CC(C)C)C(=O)N[C@H](C)C(=O)N[C@H](Cc1c[nH]c2ccccc12)C(=O)N[C@@H](C(=O)N[C@H](C)C(=O)NCC(=O)N[C@H](CC(N)=O)C(=O)N[C@H](CO)C(=O)N[C@H](CC(N)=O)C(=O)N[C@@H](CCCCN)C(=O)N[C@@H](Cc1c[nH]c2ccccc12)C(=O)N[C@H](C(=O)N[C@@H](Cc1c[nH]c2ccccc12)C(=O)N[C@@H](CCCCN)C(=O)O)[C@@H](C)O)[C@H](C)O)C(C)C)[C@H](C)O)[C@@H](C)O [Tf-D-LP4] | – | – | markedly lower | markedly lower | markedly lower | markedly lower | markedly lower | markedly lower |
